{"source": "patent US20020119178A1", "about": "(priority 2001, published 2002)", "key": {"[1]": {"system": "human saphenous vein smooth muscle cells (HSV-SMC)", "format": "cell-based", "conditions": "bromobenzenediazonium coated discs only, no drug", "description": "(§1) A proliferation assay was performed using human saphenous vein smooth muscle cells (HSV-SMC) with cells at passage 3-5. HSV-SMC were established in 96-well plates for 24 hours then serum starved for 48 hours. […] A positive control (100%) was set for cells exposed to DMEM supplemented with 20% FBS only while a negative control (0%) was set for cells exposed to only unsupplemented DMEM. Cells were stimulated for 72 hours with the anti-proliferative drug containing culture media. A solution of [3-(4,5-dimethylthiazol-2-yl)-5-(3-carboxymethoxyphenyl)-2-(4-sulfophenyl)-2H-tetrazolium](MTS, a cell proliferation marker) is then added onto the cells for 3 hours. Absorbance at 490 nm is recorded using a 96-well plate reader."}, "[2]": {"conditions": "for residual tritiated actinomycin D remaining on the discs following 8 days of elution: physiological medium", "description": "In FIG. 1, the electrochemical cell 10 is a standard three-electrode setup. A saturated Calomel electrode (SCE) was used as the reference electrode 12 and the counter electrode 14 was a circular platinum foil (3 cm^2). A 316L stainless steel disk (0.8 cm^2 area) connected to a platinum wire 16 was used as the working electrode 18. The cell was filled with an aqueous electrodeposition solution composed of 5 mM sulfuric acid and 20 mM of an aryldiazonium-containing molecule as described in FIG. 2 for the cyclic voltammetry electrochemical process. The electrodeposition of the aryldiazonium onto the stainless steel device was applied using 2 consecutive cyclic scans ranging from −0.5 V to −1.75 V relatively to the SCE reference electrode. The current-voltage response was followed on a XY recorder. Following electrodeposition, the device was consecutively washed with water and acetonitrile to remove impurities.\nFIG. 5 illustrates the necessity of the presence of a molecule containing a diazonium moiety to retain tritiated actinomycin D deposited on the surface of stainless steel 316L discs. In this experiment, stainless steel 316L discs, which are made out of the same material as the stainless steel stents and other endovascular devices, are either functionalized with 4-bromobenzenediazonium or left bare. The discs are then exposed to a solution containing 30 μg of tritiated actinomycin D whereas the solvent is acetonitrile or ethanol. Following dipping, the discs are left to dry at room temperature until the solvent evaporates. The discs are first washed in deionized water for 5 minutes followed by a 5-minute wash in a physiologic solution. The discs are then counted in a scintillation counter.\nFIG. 6 illustrates the loading and retention capacity of tritiated actinomycin D immobilized as described previously onto stainless steel 316L discs, with the exception however that water was also used as solvent for immobilizing tritiated actinomycin D. Following immobilization, the discs were first washed for 5 minutes in deionized water followed by a 5-minute wash in a physiologic solution. The loading of tritiated actinomycin D onto the stainless steel discs varied according of the type of solvent used: acetonitrile>ethanol>water.\nFIG. 7 illustrates the effect of varying concentrations of the 4-bromobenzenediazonium solution on the loading and retention of 30 μg of tritiated actinomycin D following 8 days of elution in a physiological medium. Stainless steel 316L discs were exposed to varying concentrations of 4-bromobenzenediazonium solution before electrodeposition with the set-up as described in FIG. 1. Actinomycin D loading in the ethanol solution increased 1.6 fold, from 4324±329 for […] to 7146±80 for 20 mM. […]"}, "[3]": {"system": "human saphenous vein smooth muscle cells (HSV-SMC)", "experiment": "HSV-SMC proliferation assay (MTS), drugs at known concentrations", "format": "cell-based", "conditions": "read-out: IC50 (concentration at which the proliferation is reduced by 50%)", "description": "as §1"}, "[4]": {"conditions": "Homo sapiens, HSV-SMC passage 3-5, 20% FBS, 72 hours, MTS absorbance 490 nm"}}, "note": "Like-named read-outs stand apart in the source and are kept apart here. Starred links: 1 amine or outer side, 2 acyl side, 3 side chain; linkers in the order of their positions; H or OH if unused. Positions of bridges follow the written chain, without caps; N, C: chain ends. Non-standard residues stand in square brackets, D forms with d. Residues, ends and D or L forms follow the SMILES beside them. Chains are numbered I, II in the order given. Actinocin(9to1) = Cc1c2oc3c(C)ccc(C(=O)[*:1])c3nc-2c(C(=O)[*:2])c(N)c1=O; NMeV = CN[C@H](C(=O)O)C(C)C; Sar = CNCC(=O)O", "data": [{"smiles": "F[B-](F)(F)F.N#[N+]c1ccc(Br)cc1", "note": "[molecule 5, 4-bromobenzenediazonium tetrafluoroborate]", "values": [{"measurement": "effect of elution on cell proliferation", "setting": "[1]", "value": "does not inhibit cell proliferation"}]}, {"smiles": "Cc1c2oc3c(C)ccc(C(=O)N[C@@H]4C(=O)N[C@H](C(C)C)C(=O)N5CCC[C@H]5C(=O)N(C)CC(=O)N(C)[C@@H](C(C)C)C(=O)O[C@@H]4C)c3nc-2c(C(=O)N[C@@H]2C(=O)N[C@H](C(C)C)C(=O)N3CCC[C@H]3C(=O)N(C)CC(=O)N(C)[C@@H](C(C)C)C(=O)O[C@@H]2C)c(N)c1=O", "note": "[actinomycin D] (I: T[dV]P[Sar][NMeV] / II: T[dV]P[Sar][NMeV]; ester I:1-I:C, II:1-II:C; linker I:N-II:N via Actinocin(9to1))", "values": [{"measurement": "residual tritiated actinomycin D remaining on the discs following 8 days of elution", "setting": "[2]; 0.02 mM 4-bromobenzenediazonium", "value": "348±52"}, {"measurement": "residual tritiated actinomycin D remaining on the discs following 8 days of elution", "setting": "[2]; 20 mM 4-bromobenzenediazonium", "value": "2539±43"}, {"measurement": "drug remaining on the discs after 10 days of elution", "setting": "[2]; 4-bromobenzenediazonium functionalized discs loaded with acetonitrile, physiological solution", "value": "~20", "unit": "%"}, {"measurement": "drug remaining on discs following 10 days of elution", "setting": "[2]; functionalized discs loaded with acetonitrile or ethanol", "value": "substantial amounts"}, {"measurement": "IC50", "setting": "[3]; HSV-SMC passage 3-5, 20% FBS, 72 hours, MTS absorbance 490 nm", "value": 0.081, "unit": "nM"}]}, {"smiles": "CC[C@]1(O)C[C@H]2CN(CCc3c([nH]c4ccccc34)[C@@](C(=O)OC)(c3cc4c(cc3OC)N(C=O)[C@H]3[C@@](O)(C(=O)OC)[C@H](OC(C)=O)[C@]5(CC)C=CCN6CC[C@]43[C@@H]65)C2)C1", "note": "[vincristine]", "values": [{"measurement": "IC50", "setting": "[3]; Homo sapiens, 72 h", "value": 0.82, "unit": "nM"}]}, {"smiles": "CC(=O)O[C@H]1C(=O)[C@@]2(C)[C@H]([C@H](OC(=O)c3ccccc3)[C@]3(O)C[C@H](OC(=O)[C@H](O)[C@@H](NC(=O)c4ccccc4)c4ccccc4)C(C)=C1C3(C)C)[C@]1(OC(C)=O)CO[C@@H]1C[C@@H]2O", "note": "[paclitaxel]", "values": [{"measurement": "IC50", "setting": "[3]; [4]", "value": 48, "unit": "nM"}]}, {"smiles": "COc1cccc2c1C(=O)c1c(O)c3c(c(O)c1C2=O)C[C@@](O)(C(=O)CO)C[C@@H]3O[C@H]1C[C@H](N)[C@H](O)[C@H](C)O1", "note": "[doxorubicin]", "values": [{"measurement": "IC50", "setting": "[3]; [4]", "value": 8, "unit": "nM"}]}, {"smiles": "CO[C@H]1C[C@@H]2CC[C@@H](C)[C@@](O)(O2)C(=O)C(=O)N2CCCC[C@H]2C(=O)O[C@H]([C@H](C)C[C@@H]2CC[C@@H](O)[C@H](OC)C2)CC(=O)[C@H](C)/C=C(\\C)[C@@H](O)[C@@H](OC)C(=O)[C@H](C)C[C@H](C)/C=C/C=C/C=C/1C", "note": "[rapamycin]", "values": [{"measurement": "IC50", "setting": "[3]; Homo sapiens, 72 h", "value": 0.12, "unit": "nM"}]}, {"smiles": "CC[C@]1(O)C[C@@H]2CN(CCc3c([nH]c4ccccc34)[C@@](C(=O)OC)(c3cc4c(cc3OC)N(C)[C@H]3[C@@](O)(C(=O)OC)[C@H](OC(C)=O)[C@]5(CC)C=CCN6CC[C@]43[C@@H]65)C2)C1", "note": "[vinblastine]", "values": [{"measurement": "IC50", "setting": "[3]; [4]", "value": 0.74, "unit": "nM"}]}]}
